Results reported in ChEMBL document CHEMBL5370623, “Discovery of Quinazoline-2,4(1H,3H)-dione Derivatives Containing a Piperizinone Moiety as Potent PARP-1/2 Inhibitors─Design, Synthesis, In Vivo Antitumor Activity, and X-ray Crystal Structure Analysis” (J Med Chem, 2023).
Activity calls are given as the source filed them. No cut-off for these calls is given here.

Key:
[1] = target: Poly [ADP-ribose] polymerase 1 (Homo sapiens, UniProt P09874)
Description: Inhibition of PARP1 (unknown origin)

MC-38 [2] = test: Antitumor activity against mouse MC38 cells implanted in C57BL/6 mouse assessed as tumor growth inhibition at 50 mg/kg, po qd measured after 17 days; assay type: functional; details: time 17 day
Felis catus [3] = organism: Felis catus; test: Binding affinity to cat PARP1 assessed as dissociative half-life by SPR assay
MX1 [4] = test: Potentiation factor, ratio of IC50 for cytotoxicity against human MX1 cells to IC50 for cytotoxicity against human MX1 cells in presence of temozolomide; assay type: functional
MC-38 [5] = test: Antitumor activity against mouse MC38 cells implanted in C57BL/6 mouse assessed as increase in CD8+T cells in tumor at 50 mg/kg, po qd measured after 17 days by flow cytometry analysis; assay type: functional, organism-based; details: time 17.0 day
MX1 [6] = test: Cytotoxicity against human MX1 cells […] assessed as inhibition of cell growth measured after 72 hrs by MTT assay; assay type: functional, cell-based; details: MX1, 72 h
Felis catus [7] = organism: Felis catus; test: Binding affinity to cat PARP2 assessed as dissociative half-life by SPR assay

Poly [ADP-ribose] polymerase 1, sequence (P09874 whole entry): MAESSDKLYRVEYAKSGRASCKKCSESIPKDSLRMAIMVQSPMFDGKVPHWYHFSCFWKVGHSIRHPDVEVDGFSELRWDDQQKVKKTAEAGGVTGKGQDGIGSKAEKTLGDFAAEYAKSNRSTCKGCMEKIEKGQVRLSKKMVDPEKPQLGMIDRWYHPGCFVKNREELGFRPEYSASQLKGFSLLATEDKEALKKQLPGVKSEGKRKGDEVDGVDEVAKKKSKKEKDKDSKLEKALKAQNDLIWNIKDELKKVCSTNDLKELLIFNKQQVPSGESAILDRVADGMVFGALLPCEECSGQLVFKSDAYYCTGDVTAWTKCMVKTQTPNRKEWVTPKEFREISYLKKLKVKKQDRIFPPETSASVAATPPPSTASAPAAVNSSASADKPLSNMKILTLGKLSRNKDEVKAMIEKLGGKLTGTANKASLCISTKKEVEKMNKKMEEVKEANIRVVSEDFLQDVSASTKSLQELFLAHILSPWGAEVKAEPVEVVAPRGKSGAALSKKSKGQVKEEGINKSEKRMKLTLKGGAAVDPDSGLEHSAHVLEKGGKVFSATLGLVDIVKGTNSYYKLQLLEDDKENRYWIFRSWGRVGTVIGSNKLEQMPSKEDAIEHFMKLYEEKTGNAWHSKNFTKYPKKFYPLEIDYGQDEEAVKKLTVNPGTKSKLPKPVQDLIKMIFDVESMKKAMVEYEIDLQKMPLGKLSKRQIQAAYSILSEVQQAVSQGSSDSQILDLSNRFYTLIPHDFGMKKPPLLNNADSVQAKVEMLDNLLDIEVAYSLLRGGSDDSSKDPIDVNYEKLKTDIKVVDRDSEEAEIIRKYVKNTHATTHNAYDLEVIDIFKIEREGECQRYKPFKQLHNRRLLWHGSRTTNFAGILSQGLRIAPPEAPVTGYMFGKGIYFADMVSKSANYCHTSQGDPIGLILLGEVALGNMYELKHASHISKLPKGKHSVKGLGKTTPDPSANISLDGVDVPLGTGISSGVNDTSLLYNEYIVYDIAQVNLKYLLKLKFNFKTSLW

Compound | IC50 [1] | TGI (MC-38 [2]) | T1/2 (Felis catus [3]) | PF50 (MX1 [4]) | Activity (MC-38 [5]) | IC50 (MX1 [6]) | T1/2 (Felis catus [7])
O=C(c1cc(Cc2n[nH]c(=O)c3ccccc23)ccc1F)N1CCn2c(nnc2-c2ccc(Br)o2)C1 | < 0.001 nM | – | – | – | – | – | –
O=C(c1cc(Cc2n[nH]c(=O)c3ccccc23)ccc1F)N1CCN(C(=O)C2CC2)CC1 [OLAPARIB] | – | 57.9% | 51.1 min | >10 | inactive | 8.26 nM | 17.4 min
